From patent publication US20140349989A1, “COMPOUNDS AND THERAPEUTIC USES THEREOF” (Alzheimer's Institute of America, priority 2011, published 2014) come the findings set out here.

One data set in a line: Cytotoxicity Assay (HCT116, CellTiter-Glo). In kind it is cell-based. The note with it: human, HCT116 cell cytotoxicity IC50. The method in brief: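 Cells settled overnight, then exposed to compound in DMSO for 72 h, optionally with nicotinic acid (10 μM final) added alongside. Viability read as CellTiter-Glo luminescence.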
(ATP-based viability assays read luminescence as a measure of living cells.)
As usually defined, the IC50 is the concentration that gives 50% inhibition. For the compound `Cc1c(Cc2ccc(F)cc2)c(C(=O)N2CCC(N3CCCCC3)CC2)nn1-c1ccc(NC(=O)NCc2cccnc2)cc1` [Compound 81, 1-{4-[3-(1,4′-Bipiperidin-1′-ylcarbonyl)-4-(4-fluorobenzyl)-5-methyl-1H-pyrazol-1-yl]phenyl}-3-(pyridin-3-ylmethyl)urea], the half-maximal inhibitory concentration (IC50) at 72 h is no less than 0.1 µM.

`CCOC(=O)c1c(C)n(-c2ccc(NC(=O)NCc3cccnc3)cc2)c2ccccc12` [Compound 79, Ethyl 2-methyl-1-(4-{[(pyridin-3-ylmethyl)carbamoyl]amino}phenyl)-1H-indole-3-carboxylate] came in with an IC50 at 72 h of no less than 0.1 µM.

`O=C(NCc1cccnc1)Nc1ccc(-n2cc(C(=O)N3CCC(O)CC3)c3ccccc32)c(Cl)c1` [Compound 88, 1-(3-Chloro-4-{3-[(4-hydroxy-piperidin-1-yl)carbonyl]-1H-indol-1-yl}phenyl)-3-(pyridin-3-ylmethyl)urea] returned a half-maximal inhibitory concentration (IC50) at 72 h of no less than 0.1 µM.

Compound `O=C(NCc1cccnc1)Nc1ccc(-n2nc(C(=O)N3CCC(N4CCCC4)CC3)cc2C2CC2)cc1` [Compound 74, 1-[4-(5-Cyclopropyl-3-{[4-(pyrrolidin-1-yl)piperidin-1-yl]carbonyl}-1H-pyrazol-1-yl)phenyl]-3-(pyridin-3-ylmethyl)urea] had an IC50 at 72 h of no less than 0.1 µM.

`CCOCCOCCN1CCC2(CC1)CN(c1ccc(NC(=O)NCc3cccnc3)cc1)c1ccccc12` [Compound 126, 1-(4-{1′-[2-(2-Ethoxy-ethoxy)ethyl]spiro[indole-3,4′-piperidin]-1(2H)-yl}phenyl)-3-(pyridin-3-ylmethyl)urea]: the 50% inhibitory concentration (IC50) at 72 h is no less than 0.1 µM.

On to `Cc1c(C(=O)N2CCC(n3ccnc3)CC2)c2ccccc2n1-c1ccc(NC(=O)NCc2cccnc2)cc1` [Compound 48, 1-[4-(3-{[4-(1H-Imidazol-1-yl)piperidin-1-yl]carbonyl}-2-methyl-1H-indol-1-yl)phenyl]-3-(pyridin-3-ylmethyl)urea], for which the IC50 at 72 h is no less than 0.1 µM.

Take `Cc1c(-c2ccccc2)c(C(=O)NCCCN2CCCCC2)nn1-c1ccc(NC(=O)NCc2cccnc2)cc1` [Compound 50, 5-Methyl-4-phenyl-N-[3-(piperidin-1-yl)propyl]-1-(4-{[(pyridin-3-ylmethyl)carbamoyl]ami-no}phenyl)-1H-pyrazole-3-carboxamide]: the IC50 at 72 h was less than 0.1 µM.

Staying with this data set, now noted: human, HCT116 cells, 72 hours drug incubation, CellTiter-Glo luminescence; read-out: HCT116 cell cytotoxicity IC50.
Turning to `Cc1c(C(=O)N2CCC(N3CCC(F)(F)CC3)CC2)c2ccccc2n1-c1ccc(NC(=O)NCc2cccnc2)cc1` [Compound 77, 1-(4-{3-[(4,4-Difluoro-1,4′-bipiperidin-1′-yl)carbonyl]-2-methyl-1H-indol-1-yl}phenyl)-3-(pyridin-3-ylmethyl)urea], the half-inhibitory concentration (IC50) at 72 h was less than 0.1 µM.

As to `CC1CCCN1CCc1cn(-c2ccc(/C=C/C(=O)NCc3cccnc3)cc2)c2ccccc12` (centres unmarked) [Compound 161, (2E)-3-(4-{3-[2-(2-Methylpyrrolidin-1-yl)ethyl]-1H-indol-1-yl)phenyl)-N-(pyridin-3-ylmethyl)prop-2-enamide], the IC50 at 72 h was less than 0.1 µM.

Turning to `O=C(/C=C/c1ccc(-n2cc(CCN3CCCOCC3)c3ccccc32)cc1)NCc1cccnc1` [Compound 181, (2E)-3-(4-{3-[2-(1,4-Oxazepan-4-yl)ethyl]-1H-indol-1-yl}phenyl)-N-(pyridin-3-ylmethyl)prop-2-enamide], the IC50 at 72 h was less than 0.1 µM.

Regarding `Cc1c(C(=O)N2CCN(C3CCC(F)(F)CC3)CC2)c2ccccc2n1-c1ccc(NC(=O)NCc2cccnc2)cc1` [Compound 93, 1-[4-(3-{[4-(4,4-Difluoro-cyclohexyl)pipe-razin-1-yl]carbonyl}-2-methyl-1H-indol-1-yl)phenyl]-3-(pyridin-3-ylmethyl)urea], the half-maximal inhibitory concentration (IC50) at 72 h is less than 0.1 µM.

With `CN1CCN(C2CCN(C(=O)c3cn(CCCCCNC(=O)NCc4cccnc4)c4ccccc34)CC2)CC1` [Compound 64, 1-[5-(3-{[4-(4-Methylpiperazin-1-yl)piperidin-1-yl]carbonyl}-1H-indol-1-yl)pentyl]-3-(pyridin-3-ylmethyl) urea], the IC50 at 72 h is less than 0.1 µM.

For the compound `O=C(NCc1cccnc1)Nc1ccc(-n2cc(-c3nccn3CCN3CCCCC3)c3ccccc32)cc1` [Compound 52, 1-[4-(3-{1-[2-(Piperidin-1-yl)ethyl]-1H-imidazol-2-yl}-1H-indol-1-yl)phenyl]-3-(pyridin-3-ylmethyl)urea], the IC50 at 72 h is less than 0.1 µM.

`O=C(NCc1cccnc1)Nc1ccc(-n2cc(C(=O)N3CCN(C4CCCCC4)CC3)c3ccccc32)c(Cl)c1` [Compound 92, 1-(3-Chloro-4-{3-[(4-cyclohexyl-piperazin-1-yl)carbonyl]-1H-indol-1-yl}phenyl)-3-(pyridin-3-ylmethyl)urea]: the IC50 at 72 h was less than 0.1 µM.

Turning to `O=C(NCCCCCCC1CNc2ccccc21)NCc1cccnc1` (centres unmarked) [Compound 97, 1-[6-(2,3-Dihydro-1H-indol-3-yl)hexyl]-3-(pyridin-3-ylmethyl)urea], the IC50 at 72 h is less than 0.1 µM.

In the case of `O=C(/C=C/c1ccc(-n2nc(C(=O)N3CCC(N4CCOCC4)CC3)c3ccccc32)cc1)NCc1cccnc1` [Compound 171, (2E)-3-[4-(3-{[4-(Morpholin-4-yl)piperidin-1-yl]carbonyl}-1H-indazol-1-yl)phenyl]-N-(pyridin-3-ylmethyl)prop-2-enamide], the IC50 at 72 h was less than 0.1 µM.

In the case of `CN(C)C1CN(C(=O)c2nn(-c3ccc(/C=C/C(=O)NCc4cccnc4)cc3)c3ccccc23)C1` [Compound 165, (2E)-3-[4-(3-{[3-(Dimethylamino)azetidin-1-yl]carbonyl}-1H-indazol-1-yl)phenyl]-N-(pyridin-3-ylmethyl)prop-2-enamide], the IC50 at 72 h was less than 0.1 µM.

As to `CCN(CC)CCc1cn(-c2ccc(/C=C/C(=O)NCc3cccnc3)cc2)c2ccccc12` [Compound 162, (2E)-3-(4-{3-[2-(Diethylamio)ethyl]-1H-indol-1-yl}phenyl)-N-(pyridin-3-ylmethyl)prop-2-enamide], the IC50 at 72 h is less than 0.1 µM.

As to `O=C(NCCCn1cc(C(=O)N2CCC(N3CCCCC3)CC2)c2ccccc21)NCc1cccnc1` [Compound 36, 1-{3-[3-(1,4′-Bipiperidin-1′-ylcarbonyl)-1H-indol-1-yl]propyl}-3-(pyridin-3-ylmethyl)urea], the IC50 at 72 h was no less than 0.1 µM.

Turning to `O=C(NCc1cccnc1)Nc1ccc(-n2cc(-c3nccn3CCN3CCOCC3)c3ccccc32)cc1` [Compound 102, 1-[4-(3-{1-[2-(Morpholin-4-yl)ethyl]-1H-imidazol-2-yl}-1H-indol-1-yl)phenyl]-3-(pyridin-3-ylmethyl)urea], the half-maximal inhibitory concentration (IC50) at 72 h is less than 0.1 µM.

Consider `O=C(NCCCCCn1cc(C(=O)N2CCN(C3CCCCC3)CC2)c2ccccc21)NCc1cncs1` [Compound 124, 1-(5-{3-[(4-Cyclohexyl-piperazin-1-yl)carbonyl]-1H-indol-1-yl}pentyl)-3-(1,3-thiazol-5-ylmethyl) urea], for which the half-inhibitory concentration (IC50) at 72 h is less than 0.1 µM.

On to `CN(C)C1CCN(C(=O)c2nn(-c3ccc(/C=C/C(=O)NCc4cccnc4)cc3)c3ccccc23)C1` (centres unmarked) [Compound 166, (2E)-3-[4-(3-{[3-(Dimethylamino)pyrrolidin-1-yl]carbonyl}-1H-indazol-1-yl)phenyl]-N-(pyridin-3-ylmethyl)prop-2-enamide], for which the IC50 at 72 h is less than 0.1 µM.

For the compound `O=C(NCc1cccnc1)N[C@H]1CC[C@@H](n2cc(C(=O)N3CCN(C4CCCCC4)CC3)c3ccccc32)CC1` [Compound 34, 1-(cis-4-{3-[(4-Cyclohexyl-piperazin-1-yl)carbonyl]-1H-indol-1-yl}cyclohexyl)-3-(pyridin-3-ylmethyl)urea], the half-inhibitory concentration (IC50) at 72 h is no less than 0.1 µM.
